What all share (type): cell-based
For one data set, the system named is HIV-1 (IIIB). Nature of the data set: Antiviral assay in MT-4 cells. To be noted: HIV-1 IIIB infected MT-4 cells, 5 days, Cell Titer Glo, read-out: MT4 EC50. In short, it runs like this: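 MT-4 cells infected with a 1:250 dilution of HIV-1 IIIB stock were incubated with serially diluted (1:3) compound for 5 days at 37 °C. Viability read by Cell Titer Glo luminescence; EC50 is the concentration giving 50% decrease in signal, from sigmoidal dose-response fits.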
A general note: In ATP-based viability assays light output follows the ATP content of the culture.

For the next data set, the system named is MT-4 cells. As to the kind of experiment: Cytotoxicity assay in MT-4 cells. In outline:
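Uninfected MT-4 cells were incubated with 1:3 serially diluted compound in RPMI/10% FBS for 5 days at 37° C. Viability was read by CellTiter-Glo luminescence, with 10 μM puromycin as the baseline cytotoxicity control. Values are the concentration giving a 50% decrease in luminescence, from sigmoidal dose-response fits.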

A further data set deals with pLai RLuc reporter virus. Nature of the data set: HIV MT-4 serum shift antiviral reporter assay. In outline: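 MT-4 cells pre-infected with pLai RLuc virus for 2 h at 37 °C, then incubated 72 h at 37 °C with compound in medium (RPMI, 10% FBS) with or without 50% human serum; Renilla luminescence read. EC50 from sigmoidal fit; serum shift = EC50(HS/CCM)/EC50(CCM).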
Where [1] appears, read: uninfected MT-4 cells, 5 days, Cell Titer Glo, read-out: CC50.
The mark [2] stands for this setting: HS/CCM: 50% human serum, 72 h, Renilla Glo, read-out: RLUC 50% HS.
Setting [3] is: cell culture media (RPMI, 10% FBS), 72 h, Renilla Glo, read-out: RLUC CCM.
Setting [4] is: Human immunodeficiency virus 1, IIIB, MT4, 120 h.
Where [5] appears, read: Human immunodeficiency virus 1, 72 h, read-out: RLUC 50% HS (nM), HS/CCM: 50% human serum, 72 h, Renilla Glo.
[6] abbreviates: Human immunodeficiency virus 1, 72 h, read-out: RLUC CCM (nM), cell culture media (RPMI, 10% FBS), 72 h, Renilla Glo.
The mark [7] stands for this setting: read-out: RLUC 50% HS, HS/CCM: 50% human serum, 72 h, Renilla Glo.
[8] abbreviates: read-out: RLUC CCM, cell culture media (RPMI, 10% FBS), 72 h, Renilla Glo.

The structures appear in SMILES notation. Read-outs that look alike come from different tables or passages of the source.

Broadly, the CC50 is the concentration that lowers cell viability or growth by half. In the case of `C[C@@H]1CC[C@H](CF)N2CN1n1cc(C(=O)NCc3ccc(F)cc3F)c(=O)c(O)c1C2=O` [Example C49b, (1S,10R,13R)—N-[(2,4-difluorophenyl)methyl]-10-(fluoromethyl)-6-hydroxy-13-methyl-5,8-dioxo-1,2,9-triazatricyclo[7.4.1.02,7]tetradeca-3,6-diene-4-carboxamide], the EC50 in the data set on HIV-1 (IIIB) came out at 1.9 nM; in the data set with pLai RLuc reporter virus (setting [2]) it was 462 nM; in the data set with pLai RLuc reporter virus (setting [3]), 1 nM. Also, the CC50 with MT-4 cells (setting [1]) was 8930 nM.
Regarding `C[C@@H]1CC[C@H](CF)N2CN1n1cc(C(=O)NCc3c(F)cc(F)cc3F)c(=O)c(O)c1C2=O` [Example C51, (1S,2R,5R)-5-(fluoromethyl)-8-hydroxy-2-methyl-7,9-dioxo-N-(2,4,6-trifluorobenzyl)-2,3,4,5,7,9-hexahydro-1,6-methanopyrido[1,2-b][1,2,5]triazonine-10-carboxamide], the figures for the EC50 with HIV-1 (IIIB), with pLai RLuc reporter virus (setting [2]) and in the data set on pLai RLuc reporter virus (setting [3]) were 1.3 nM, 408 nM and 2.3 nM, respectively. The CC50 in the data set with MT-4 cells was 9810 nM.
Consider `C[C@@H]1c2nc[nH]c2[C@H](C)N2CN1n1cc(C(=O)NCc3ccc(F)cc3F)c(=O)c(O)c1C2=O` [Example C60, (4R,5S,13S)—N-(2,4-difluorobenzyl)-10-hydroxy-4,13-dimethyl-9,11-dioxo-4,9,11,13-tetrahydro-1H-5,12-methanoimidazo[4,5-g]pyrido[1,2-b][1,2,5]triazonine-8-carboxamide], for which the EC50 in the data set on HIV-1 (IIIB) (setting [4]) amounted to 95.7 nM; with pLai RLuc reporter virus (setting [5]), 104 nM; with pLai RLuc reporter virus (setting [6]), 42.6 nM. The CC50 in the data set on MT-4 cells (setting [1]) came out at 50000 nM.
`CO[C@@H]1[C@H](OC)[C@H](C)N2CN([C@@H]1C)n1cc(C(=O)NCc3c(F)cc(F)cc3F)c(=O)c(O)c1C2=O` [Example C61, (1S,2R,3S,4R,5S)-8-hydroxy-3,4-dimethoxy-2,5-dimethyl-7,9-dioxo-N-(2,4,6-trifluorobenzyl)-2,3,4,5,7,9-hexahydro-1,6-methanopyrido[1,2-b][1,2,5]triazonine-10-carboxamide]: the figures for the EC50 with HIV-1 (IIIB) (setting [4]), with pLai RLuc reporter virus (setting [5]) and with pLai RLuc reporter virus (setting [6]) were 2.8 nM, 1.6 nM and 0.76 nM, respectively. Moreover, the CC50 in the data set on MT-4 cells (setting [1]) came out at 50000 nM.
`C[C@H]1CC[C@H](C)N2CN1C(=O)c1c(O)c(=O)c(C(=O)NCc3c(F)cc(F)cc3F)cn12` [Example C66, (1R,2S,5S)-8-hydroxy-2,5-dimethyl-7,9-dioxo-N-(2,4,6-trifluorobenzyl)-2,3,4,5,7,9-hexahydro-1,6-methanopyrido[1,2-b][1,2,5]triazonine-10-carboxamide]: the EC50 with HIV-1 (IIIB) was 1.4 nM; in the data set with pLai RLuc reporter virus (setting [7]), 179 nM; in the data set on pLai RLuc reporter virus (setting [8]), 0.5 nM. Further, in the data set on MT-4 cells (setting [1]), the CC50 worked out at 10400 nM.
Regarding `C[C@@H]1C=C[C@@H](C)N2CN1C(=O)c1c(O)c(=O)c(C(=O)NCc3ccc(F)cc3F)cn12` [Example C68, (1R,2R,5R)—N-(2,4-difluorobenzyl)-8-hydroxy-2,5-dimethyl-7,9-dioxo-2,5,7,9-tetrahydro-1,6-methanopyrido[1,2-b][1,2,5]triazonine-10-carboxamide], the EC50 in the data set with HIV-1 (IIIB) (setting [4]) turned out to be 1.6 nM; in the data set with pLai RLuc reporter virus (setting [6]), 0.82 nM; with pLai RLuc reporter virus (setting [7]), 291 nM. Besides, the cytotoxic concentration (CC50) in the data set with MT-4 cells (setting [1]) is 17300 nM.
With `C[C@@H]1C=C[C@@H](C)N2CN1C(=O)c1c(O)c(=O)c(C(=O)NCc3ccc(F)cc3F)cn12` [Example C69, (1S,2R,5R)—N-(2,4-difluorobenzyl)-8-hydroxy-2,5-dimethyl-7,9-dioxo-2,5,7,9-tetrahydro-1,6-methanopyrido[1,2-b][1,2,5]triazonine-10-carboxamide], the EC50 came out at 1.5 nM in the data set with HIV-1 (IIIB), 146 nM with pLai RLuc reporter virus (setting [7]) and 0.55 nM with pLai RLuc reporter virus (setting [8]). In the data set with MT-4 cells (setting [1]), the CC50 came to 38900 nM.
As for `C[C@H]1CC[C@@H](C(F)F)N2CN1C(=O)c1c(O)c(=O)c(C(=O)NCc3c(F)cc(F)cc3F)cn12` [Example C78, (1S,2S,5S)-2-(difluoromethyl)-8-hydroxy-5-methyl-7,9-dioxo-N-(2,4,6-trifluorobenzyl)-2,3,4,5,7,9-hexahydro-1,6-methanopyrido[1,2-b][1,2,5]triazonine-10-carboxamide], the EC50 in the data set on HIV-1 (IIIB) came to 1.6 nM; in the data set on pLai RLuc reporter virus (setting [2]) it was 1040 nM; in the data set with pLai RLuc reporter virus (setting [3]) it was 0.42 nM. In addition, the CC50 in the data set with MT-4 cells (setting [1]) came to 13700 nM.
As to `COC[C@@H]1C=C[C@H](C)N2CN1n1cc(C(=O)NCc3c(F)cc(F)cc3F)c(=O)c(O)c1C2=O` [Example C79, (1S,2S,5S)-8-hydroxy-2-(methoxymethyl)-5-methyl-7,9-dioxo-N-(2,4,6-trifluorobenzyl)-2,5,7,9-tetrahydro-1,6-methanopyrido[1,2-b][1,2,5]triazonine-10-carboxamide], the EC50 is 4.6 nM in the data set on HIV-1 (IIIB) (setting [4]), 638 nM in the data set on pLai RLuc reporter virus (setting [5]) and 1.81 nM with pLai RLuc reporter virus (setting [6]). Also, the CC50 in the data set on MT-4 cells (setting [1]) amounted to 50000 nM.
Consider `C[C@H]1C=C[C@H](CF)N2CN1C(=O)c1c(O)c(=O)c(C(=O)NCc3c(F)cc(F)cc3F)cn12` [Example C80, (1R,2R,5S)-2-(fluoromethyl)-8-hydroxy-5-methyl-7,9-dioxo-N-(2,4,6-trifluorobenzyl)-2,5,7,9-tetrahydro-1,6-methanopyrido[1,2-b][1,2,5]triazonine-10-carboxamide], for which the EC50 was determined as 8.1 nM in the data set on HIV-1 (IIIB), 810 nM with pLai RLuc reporter virus (setting [2]) and 1.24 nM with pLai RLuc reporter virus (setting [3]). Also, in the data set with MT-4 cells, the CC50 is 25400 nM.
As for `C[C@H]1C=C[C@]2(CCOC2)N2CN1C(=O)c1c(O)c(=O)c(C(=O)NCc3c(F)cc(F)cc3F)cn12` [Example C84, (1′S,3S,5′S)-8′-hydroxy-5′-methyl-7′,9′-dioxo-N-(2,4,6-trifluorobenzyl)-4,5,7′,9′-tetrahydro-2H,5′H-spiro[furan-3,2′-[1,6]methanopyrido[1,2-b][1,2,5]triazonine]-10′-carboxamide], the EC50 came out at 0.6 nM in the data set with HIV-1 (IIIB), 24.9 nM in the data set with pLai RLuc reporter virus (setting [2]) and 0.26 nM with pLai RLuc reporter virus (setting [3]). For the same compound, the CC50 with MT-4 cells (setting [1]) came out at 20500 nM.
In the same order, the values of `C[C@@H]1[C@H]2C[C@H]2[C@H](C)N2CN1n1cc(C(=O)NCc3c(F)cc(F)cc3F)c(=O)c(O)c1C2=O` [Example C89, (1aS,2R,3R,11S,11aR)-8-hydroxy-2,11-dimethyl-7,9-dioxo-N-(2,4,6-trifluorobenzyl)-1a,2,7,9,11,11a-hexahydro-1H-3,10-methanocyclopropa[g]pyrido[1,2-b][1,2,5]triazonine-6-carboxamide] are 1.1 nM, 36.5 nM, 1.09 nM and 37200 nM.
The matching figures for `C[C@H]1C=CC(C)(C)N2CN1n1cc(C(=O)NCc3ccc(F)cc3F)c(=O)c(O)c1C2=O` [Example C91, (1R,2S)—N-(2,4-difluorobenzyl)-8-hydroxy-2,5,5-trimethyl-7,9-dioxo-2,5,7,9-tetrahydro-1,6-methanopyrido[1,2-b][1,2,5]triazonine-10-carboxamide]: 1.9 nM, 195 nM, 0.67 nM and 31000 nM.
Regarding `C[C@H]1C=CC(C)(C)N2CN1n1cc(C(=O)NCc3ccc(F)cc3F)c(=O)c(O)c1C2=O` [Example C92, (1S,2S)—N-(2,4-difluorobenzyl)-8-hydroxy-2,5,5-trimethyl-7,9-dioxo-2,5,7,9-tetrahydro-1,6-methanopyrido[1,2-b][1,2,5]triazonine-10-carboxamide], the EC50 was determined as 1.5 nM in the data set with HIV-1 (IIIB), 246 nM in the data set on pLai RLuc reporter virus (setting [2]) and 0.67 nM in the data set on pLai RLuc reporter virus (setting [3]). Further, the CC50 in the data set on MT-4 cells (setting [1]) stood at 17500 nM.
Regarding `C[C@@H]1CCC(C)(C)N2CN1n1cc(C(=O)NCc3ccc(F)cc3F)c(=O)c(O)c1C2=O` [Example C93, (1S,2R)—N-(2,4-difluorobenzyl)-8-hydroxy-2,5,5-trimethyl-7,9-dioxo-2,3,4,5,7,9-hexahydro-1,6-methanopyrido[1,2-b][1,2,5]triazonine-10-carboxamide], the results for the EC50 with HIV-1 (IIIB), in the data set on pLai RLuc reporter virus (setting [2]) and in the data set on pLai RLuc reporter virus (setting [3]) were 16.9 nM, 96.8 nM and 1.15 nM, respectively. The CC50 with MT-4 cells (setting [1]) was 50000 nM.
The matching figures for `C[C@H]1CCC(C)(C)N2CN1n1cc(C(=O)NCc3ccc(F)cc3F)c(=O)c(O)c1C2=O` [Example C94, (1R,2S)—N-(2,4-difluorobenzyl)-8-hydroxy-2,5,5-trimethyl-7,9-dioxo-2,3,4,5,7,9-hexahydro-1,6-methanopyrido[1,2-b][1,2,5]triazonine-10-carboxamide]: 25.1 nM, 361 nM, 6.21 nM and 50000 nM.
`C[C@H]1CCC(C)(C)N2CN1n1cc(C(=O)NCc3ccc(F)cc3F)c(=O)c(O)c1C2=O` [Example C95, (1S,2S)—N-(2,4-difluorobenzyl)-8-hydroxy-2,5,5-trimethyl-7,9-dioxo-2,3,4,5,7,9-hexahydro-1,6-methanopyrido[1,2-b][1,2,5]triazonine-10-carboxamide]: the EC50 in the data set with HIV-1 (IIIB) (setting [4]) is 12.3 nM; in the data set with pLai RLuc reporter virus (setting [5]), 461 nM; in the data set with pLai RLuc reporter virus (setting [6]), 2.52 nM. Moreover, in the data set with MT-4 cells (setting [1]), the CC50 is 50000 nM.

These data come from patent US11613546B2, “Substituted pyridotriazine compounds and uses thereof” (Gilead Sciences, Inc., priority 2021, dated 2023).
